These are literature values, as cited in patent publication US12268209B2, “Liquid sulfonylurea-containing herbicidal compositions” (Mitsui AgriScience International S.A./N.V., priority 2014, dated 2025).

For series [1] the following is noted: after 5 days, depending on the selected solvent; 52° C.
For series [2] the following is noted: after one week of storage at 40° C.; compositions of WO 2007/027863 A2.

Turning to `COC(=O)c1ccccc1S(=O)(=O)NC(=O)Nc1nc(C)nc(OC)n1` [metsulfuron-methyl, methyl 2-[[[[(4-methoxy-6-methyl-1,3,5-triazin-2-yl)amino]carbonyl]amino]sulfonyl]benzoate], the metsulfuron methyl lost in series [1] is 25-30%. On to `COC(=O)c1ccccc1S(=O)(=O)NC(=O)N(C)c1nc(C)nc(OC)n1` [tribenuron-methyl, methyl 2-[[[[N-(4-methoxy-6-methyl-1,3,5-triazin-2-yl)-N-methylamino]carbonyl]amino]-sulfonyl]benzoate], for which, in series [2], the tribenuron-methyl lost result is “up to 66.5%”.
